Laboratory results: patent publication US8242160B2, “Inhibitors of ubiquitin E1” (The United States of America, as represented by the …, priority 2005, dated 2012)
Where a SMILES comes first, the peptide text is derived from it. [ ]: non-standard residue; d: D form. The star is where a group is joined. Nle = CCCC[C@H](N)C(=O)O; Cbz = O=C(OCc1ccccc1)*

Tests used:
cyclin E = assay: Degradation of in vitro translated cyclin E in S-100 cytosolic extract; type: biochemical
Source text: Cytosolic extracts from cells (S-100) contain all the components for ubiquitination and proteasomal degradation. To further evaluate 4-[4-(5-nitro-furan-2-ylmethylene)-3,5-dioxo-pyrazolidin-1-yl]-benzoic acid methyl acid, we made use of in vitro translated cyclin E, which is degraded in S-100 in a time-dependent manner (FIG. 3, upper panel, lanes 1-4).

Nedd4 = assay: In vitro autoubiquitination of HECT E3 Nedd4; type: biochemical
Description: It was then evaluated whether 4-[4-(5-nitro-furan-2-ylmethylene)-3,5-dioxo-pyrazolidin-1-yl]-benzoic acid methyl acid blocks autoubiquitination of both RING finger E3s (Mdm2) and HECT E3s (Nedd4) in vitro.
5 pmole per experimental point of bacterially expressed GST-Mdm2 (or GST-Nedd) is coupled to glutathione Sepharose (GS) for 30 minutes at room temperature with tumbling, followed by 3× wash with 50 mM Tris pH 7.5. Following this, 20 μl of 1× buffer is added (40 μl 10× reaction buffer*, 40 μl 10× PCK**, 320 μl dH2O). The test compound in DMSO is then added to the desired concentration with an equal volume of DMSO used as a control. Samples are incubated with shaking for 1 hr at 23° C. To carry out the reaction, a pre-made cocktail of Rabbit E1 (Calbiochem #6620700)/UbCH5B/^32P Ub cocktail (1 μl/0.5 μl/1 μl) is added followed by 15 minutes shaking at 30° C. The reaction is terminated by addition of 8 μl 4× reducing SDS-PAGE loading buffer. After dissociating proteins from the beads at 100° C. for 2 minutes, samples are resolved on 6% PAGE followed by exposure of the dried gel to phosphor screen. Note: ^32P Ub is derived from GST-Ub that has been engineered to include a PKA phosphorylation site. This fusion protein is purified on glutathione Sepharose, phosphorylated, following this, the ^32P Ub ubiquitin is cleaved and purified away from the thrombin.

IκBα = assay: TNFα-induced IκBα degradation in cells; type: cell-based

CC(C)C[C@@H](C=O)NC(=O)[C@H](CC(C)C)NC(=O)[C@H](CC(C)C)NC(=O)OCc1ccccc1 [MG132, reference compound] (Cbz-Leu-Leu-Leu-aldehyde)
cyclin E degradation in S-100 (cyclin E; no exogenous E1): block cyclin E degradation
cyclin E degradation in S-100 after addition of purified exogenous E1 (cyclin E; purified exogenous E1 added to the reaction mixture): unable to overcome the block in cyclin E degradation

O=c1nc2n(-c3cccc(Cl)c3)c3ccc([N+](=O)[O-])cc3cc-2c(=O)[nH]1 [98CO7, 10-(-3-chloro-phenyl)-7-nitro-10H-pyrimido[4,5-b]quinoline-2,4-dione, reference compound]
autoubiquitination of Nedd4 (Nedd4): only has very moderate effects

CCCC[C@@H](C=O)NC(=O)[C@H](CC(C)C)NC(=O)[C@H](CC(C)C)NC(C)=O [ALLN, reference compound] (Ac-Leu-Leu-[Nle]-aldehyde)
TNFα-induced IκBα degradation (IκBα): prevents TNFα-induced IκBα degradation
